Experimental data as given in ChEMBL document CHEMBL6134780, “Halogenated retinoid derivatives as dual RARα and RXRα modulators for treating acute promyelocytic leukemia cells” (Eur J Med Chem, 2024).
The source made the active and inactive calls. The rule behind the calls is not given here.

Columns and labels:
[1] = molecular target: T1, Retinoic acid receptor gamma (Homo sapiens, UniProt P13631); test: Agonist activity at Gal4-fused full length human RARgamma LBD transfected in HEK293T cells co-transfected with pG5luc reporter and Renilla-luc assessed as transactivation incubated for 12 hrs by dual luciferase reporter gene assay; assay type: cell-based; settings: hek293t
T1 sequence (P13631 whole entry): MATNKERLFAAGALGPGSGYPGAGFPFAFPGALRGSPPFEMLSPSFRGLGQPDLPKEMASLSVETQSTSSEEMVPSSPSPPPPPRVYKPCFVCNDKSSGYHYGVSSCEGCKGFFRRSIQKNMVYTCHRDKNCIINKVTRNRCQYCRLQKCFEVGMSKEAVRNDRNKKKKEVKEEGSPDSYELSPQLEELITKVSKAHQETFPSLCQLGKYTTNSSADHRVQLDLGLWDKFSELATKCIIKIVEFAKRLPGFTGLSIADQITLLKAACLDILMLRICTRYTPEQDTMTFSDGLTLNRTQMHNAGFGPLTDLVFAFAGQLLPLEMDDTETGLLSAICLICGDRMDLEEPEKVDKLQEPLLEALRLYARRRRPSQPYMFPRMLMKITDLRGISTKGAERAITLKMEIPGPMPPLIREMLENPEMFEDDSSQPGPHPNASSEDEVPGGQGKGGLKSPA

[2] = system: HEK293T; test: Agonist activity at full length RARalpha LBD R276E mutant (unknown origin) transfected in HEK293T cells co-transfected with pG5luc reporter and Renilla-luc at 1 uM incubated for 12 hrs by luciferase reporter gene assay; assay type: cell-based; settings: Homo sapiens, filed as agonist
[3] = system: NB-4; test: Antiproliferative activity against human NB4 cells assessed as inhibition of cell viability at 0.125 uM incubated for 3 days by CCK8 assay relative to control; assay type: functional; settings: NB-4, 72 h, time 3 day
[4] = system: ATRA-resistant NB4-LR2; test: Antiproliferative activity against human ATRA-resistant NB4-LR2 cells assessed as effect on cell viability up to 2 uM incubated for 3 days by CCK8 assay; assay type: functional, cell-based; settings: time 3.0 day
[5] = molecular target: T2, Retinoic acid receptor gamma (Homo sapiens) (UniProt P13631); test: Agonist activity at full length RARgamma LBD (unknown origin) transfected in HEK293T cells co-transfected with pG5luc reporter and Renilla-luc at 1 uM incubated for 12 hrs by luciferase reporter gene assay; assay type: cell-based; settings: filed as agonist
T2 sequence (whole entry): T1 sequence (P13631 whole entry)

[6] = molecular target: T3, Retinoic acid receptor alpha (Homo sapiens) (UniProt P10276); test: Agonist activity at full length RARalpha LBD (unknown origin) transfected in HEK293T cells co-transfected with pG5luc reporter and Renilla-luc at 1 uM incubated for 12 hrs by luciferase reporter gene assay; assay type: cell-based; settings: filed as agonist
T3 sequence (whole entry): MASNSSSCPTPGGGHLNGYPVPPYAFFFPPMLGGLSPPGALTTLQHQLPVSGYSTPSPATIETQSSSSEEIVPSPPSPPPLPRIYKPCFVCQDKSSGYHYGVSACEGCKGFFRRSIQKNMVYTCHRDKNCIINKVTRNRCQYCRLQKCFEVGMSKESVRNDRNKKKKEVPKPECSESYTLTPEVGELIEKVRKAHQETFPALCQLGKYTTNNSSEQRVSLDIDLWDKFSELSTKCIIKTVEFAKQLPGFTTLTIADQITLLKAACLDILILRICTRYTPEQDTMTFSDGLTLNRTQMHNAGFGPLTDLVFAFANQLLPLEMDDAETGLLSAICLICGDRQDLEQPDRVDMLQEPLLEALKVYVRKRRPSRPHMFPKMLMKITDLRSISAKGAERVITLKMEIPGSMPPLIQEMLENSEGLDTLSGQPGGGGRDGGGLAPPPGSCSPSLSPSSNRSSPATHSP

[7] = molecular target: T4, Retinoic acid receptor beta (Homo sapiens) (UniProt P10826); test: Agonist activity at full length RARbeta LBD (unknown origin) transfected in HEK293T cells co-transfected with pG5luc reporter and Renilla-luc at 1 uM incubated for 12 hrs by luciferase reporter gene assay; assay type: cell-based; settings: filed as agonist
T4 sequence (whole entry): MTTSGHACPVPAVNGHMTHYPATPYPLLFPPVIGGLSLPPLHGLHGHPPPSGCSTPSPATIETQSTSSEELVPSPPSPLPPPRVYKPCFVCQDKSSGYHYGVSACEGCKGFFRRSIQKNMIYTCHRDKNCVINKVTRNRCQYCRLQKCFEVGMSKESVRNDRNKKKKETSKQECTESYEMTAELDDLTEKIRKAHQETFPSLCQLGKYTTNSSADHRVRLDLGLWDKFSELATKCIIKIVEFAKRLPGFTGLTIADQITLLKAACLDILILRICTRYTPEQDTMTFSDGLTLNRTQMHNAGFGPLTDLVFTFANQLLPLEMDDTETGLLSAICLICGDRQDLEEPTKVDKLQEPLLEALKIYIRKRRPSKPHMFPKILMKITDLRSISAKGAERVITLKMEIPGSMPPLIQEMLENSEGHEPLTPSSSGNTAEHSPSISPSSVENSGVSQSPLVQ

Question: Which results are given for `CC1(C)CCC(C)(C)c2cc(C(=O)Nc3ccc(C(=O)O)cc3)ccc21`?
Answer: EC50 [1]: Not_determined(Unstable); Activity [2]: Active; Partial Impairment Observed; inhibition at 0.125 µM [3]: ~40%; Activity [4]: inactive

Question: What does the source list for `Cc1cc2c(cc1C(=O)/C=C/c1ccc(C(=O)O)cc1)C(C)(C)CCC2(C)C`?
Answer: Activity [5]: Active; Poor Subtype Selectivity Observed; Activity [6]: Active; Activity [7]: Active; Poor Subtype Selectivity Observed
